One assay has as its target T1, mutant MGL (Homo sapiens, UniProt Q99685, L169S/L176S).
T1 sequence (Q99685 1-303 L169S/L176S): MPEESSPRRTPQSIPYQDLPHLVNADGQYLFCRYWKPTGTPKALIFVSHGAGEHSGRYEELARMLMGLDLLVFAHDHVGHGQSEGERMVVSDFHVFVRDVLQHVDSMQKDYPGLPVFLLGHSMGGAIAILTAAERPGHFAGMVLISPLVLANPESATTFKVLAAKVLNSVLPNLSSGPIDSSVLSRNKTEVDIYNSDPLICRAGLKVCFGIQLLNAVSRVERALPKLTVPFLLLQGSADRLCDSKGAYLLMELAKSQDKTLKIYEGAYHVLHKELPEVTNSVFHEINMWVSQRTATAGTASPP
The assay is described as follows: MGL ThermoFluor assay - mutant. It counts as binding. For orientation: DSF heats the sample and reads unfolding from a dye or from intrinsic fluorescence.

For assay [1], the target named is T2, purified wild type MGL (wt-MGLL 6H-11-313) (Homo sapiens, UniProt Q99685).
T2 sequence (Q99685 1-303): T1 sequence (Q99685 1-303 L169S/L176S) with S169L, S176L

The mark [2] stands for this setting: ThermoFluor concentration-response, read-out: MGL mutant ThermoFluor Kd.
Where [3] appears, read: ThermoFluor thermal stability binding assay, read-out: MGL mutant ThermoFluor Kd.
The mark [4] stands for this setting: ThermoFluor, compound concentration measured by qNMR, read-out: MGL mutant ThermoFluor qKd (using qNMR conc.).
Where [5] appears, read: compound concentration measured by qNMR, read-out: MGL mutant ThermoFluor qKd (using qNMR conc.).
The mark [6] stands for this setting: ThermoFluor, compound concentration measured by qNMR, read-out: MGL mutant ThermoFluor qKd (μM) (using qNMR conc.).

Residue numbers refer to the chain shown, from its start. Where two headings read alike, the source gives them in different places.

Regarding `O=C(c1ccccc1)N1CCN(C2CN(C(=O)c3ccc(F)c(Cc4ccc(C(F)(F)F)cc4)c3)C2)CC1` [Cpd 563], the Kd on mutant MGL (setting [2]) stood at 2.11 µM. In assay [1], this compound came in with an IC50 of 2490 nM.
Regarding `O=C(c1cscn1)N1CCN(C2CN(C(=O)c3cccc4[nH]c(-c5ccc(Cl)cc5)nc34)C2)CC1` [Cpd 1290], the Kd on mutant MGL (setting [3]) was determined as 0.643 µM. In addition, in assay [1], inhibition was half-maximal at 2700 nM (IC50).
Turning to `CC(C)(C)c1cc(C(=O)N2CC(N3CCN(C(=O)c4nccs4)CC3)C2)cc(C(C)(C)C)c1` [Cpd 776], on mutant MGL (setting [2]), the Kd was 0.257 µM. This compound also displayed an IC50 in assay [1] of 902 nM.
In the case of `Cc1cc(-n2ccc3cc(C(=O)N4CC(N5CCN(C(=O)c6nccs6)CC5)C4)ccc32)ccn1` [Cpd 1410, 1-(2-Methylpyridin-4-yl)-5-({3-[4-(1,3-thiazol-2-ylcarbonyl)piperazin-1-yl]azetidin-1-yl}carbonyl)-1H-indole], at mutant MGL (setting [4]), the Kd was determined as 0.014 µM. In assay [1], this compound showed an IC50 of 89 nM.
Consider `O=C(c1ccc(Sc2cccc(C(F)(F)F)c2)cc1)N1CC(N2CCN(C(=O)C(F)(F)F)CC2)C1` [Cpd 790], for which the Kd at mutant MGL (setting [5]) turned out to be 2.49 µM. This compound gave an IC50 in assay [1] of 1420 nM.
As for `O=C(c1cc2ccc(-c3cccnc3F)cc2[nH]1)N1CC(N2CCN(C(=O)c3nccs3)CC2)C1` [Cpd 1244], the Kd at mutant MGL (setting [6]) is 0.589 µM. The IC50 in assay [1] was found to be 463 nM.
As to `O=C(c1ccc2c(ccn2-c2ccncc2)c1)N1CC(N2CCN(C(=O)c3nccs3)CC2)C1` [Cpd 1127, 1-Pyridin-4-yl-5-({3-[4-(1,3-thiazol-2-ylcarbonyl)piperazin-1-yl]azetidin-1-yl}carbonyl)-1H-indole], at mutant MGL (setting [4]), the Kd is 0.098 µM. This compound also came in with a half-maximal inhibitory concentration (IC50) in assay [1] of 20 nM.
As for `O=C(c1cc2ccc(C(F)(F)F)nc2o1)N1CC(N2CCN(C(=O)c3nccs3)CC2)C1` [Cpd 844], the Kd on mutant MGL (setting [2]) was 62.5 µM. For the same compound, the half-maximal inhibitory concentration (IC50) in assay [1] turned out to be 6100 nM.
On to `O=C(c1ccc(-c2ccccc2)cc1)N1CC(N2CCN(C(=O)C3CC3(F)F)CC2)C1` (stereo not shown) [Cpd 1256], for which the Kd on mutant MGL (setting [3]) is 0.393 µM. This compound also gave a half-inhibitory concentration (IC50) in assay [1] of 808 nM.
With `O=C(c1ccc2nn(-c3cccc(C(F)(F)F)c3)cc2c1)N1CC(N2CCN(C(=O)c3nccs3)CC2)C1` [Cpd 1420], the Kd at mutant MGL (setting [6]) came to 0.08 µM. In assay [1], 5 nM corresponded to half-maximal inhibition (IC50).
Regarding `O=C(c1ccc2nn(Cc3ccc(C(F)(F)F)cc3)cc2c1)N1CC(N2CCN(C(=O)c3nccs3)CC2)C1` [Cpd 1037, 5-({3-[4-(1,3-Thiazol-2-ylcarbonyl)piperazin-1-yl]azetidin-1-yl}carbonyl)-2-[4-(trifluoromethyl)benzyl]-2H-indazole], the Kd at mutant MGL (setting [5]) is 0.022 µM. In addition, in assay [1], the IC50 came to 5 nM.
For the compound `O=C(c1ccc2c(ccn2-c2cncnc2)c1)N1CC(N2CCN(C(=O)c3nccs3)CC2)C1` [Cpd 1263, 1-Pyrimidin-5-yl-5-({3-[4-(1,3-thiazol-2-ylcarbonyl)piperazin-1-yl]azetidin-1-yl}carbonyl)-1H-indole], the Kd on mutant MGL (setting [4]) amounted to 0.215 µM. Moreover, the IC50 in assay [1] was 968 nM.
The like results for `CC(=O)NCCOc1ccc(C(=O)N2CC(N3CCN(C(=O)c4nccs4)CC3)C2)cc1` [Cpd 836] were, in that order, 2.25 µM and 4760 nM.
In the case of `O=C(c1cnc2cc(Cl)c(Cl)cc2c1)N1CC(N2CCN(C(=O)c3nccs3)CC2)C1` [Cpd 743], the Kd at mutant MGL (setting [4]) came to 0.133 µM. Moreover, in assay [1], half-maximal inhibition (IC50) required 324 nM.
On to `Cn1cc(Cc2ccc(F)cc2)c2ccc(C(=O)N3CC(N4CCN(C(=O)c5nccs5)CC4)C3)cc21` [Cpd 1026], for which the Kd on mutant MGL (setting [5]) worked out at 0.001 µM. Moreover, the IC50 in assay [1] stood at 16 nM.
For `Cc1nc2cc(Cl)cc(Cl)c2cc1C(=O)N1CC(N2CCN(C(=O)c3nccs3)CC2)C1` [Cpd 823], at mutant MGL (setting [4]), the Kd stood at 1.25 µM. The concentration for half-maximal inhibition (IC50) in assay [1] is 2970 nM.
`N#Cc1cc(-n2ccc3cc(C(=O)N4CC(N5CCN(C(=O)c6nccs6)CC5)C4)ccc32)ccc1F` [Cpd 1417, 2-Fluoro-5-[5-({3-[4-(1,3-thiazol-2-ylcarbonyl)piperazin-1-yl]azetidin-1-yl}carbonyl)-1H-indol-1-yl]benzonitrile]: the Kd at mutant MGL (setting [2]) was determined as 0.025 µM. In addition, the 50% inhibitory concentration (IC50) in assay [1] is below 5 nM.
The like results for `CC1(C)C=C(c2ccc(C(=O)N3CC(N4CCN(C(=O)c5nccs5)CC4)C3)cc2)CC(C)(C)O1` [Cpd 706] were, in that order, 0.001 µM and 103 nM.
`O=C(c1cnc2ccn(-c3ccc(F)cc3)c2c1)N1CC(N2CCN(C(=O)c3nccs3)CC2)C1` [Cpd 1277]: the Kd on mutant MGL (setting [6]) came out at 2.72 µM. The compound further gave an IC50 in assay [1] of 1830 nM.
The corresponding values for `O=C(c1ccccc1)N1CCN(C2CN(C(=O)c3ccc4c(cnn4-c4cccc(OC(F)(F)F)c4)c3)C2)CC1` [Cpd 576, 5-({3-[4-(Phenylcarbonyl)piperazin-1-yl]azetidin-1-yl}carbonyl)-1-[3-(trifluoromethoxy)phenyl]-1H-indazole] are 0.088 µM and 51 nM.
Take `CC(c1ccccc1)n1ncc2cc(C(=O)N3CC(N4CCN(C(=O)c5nccs5)CC4)C3)ccc21` (stereo not shown) [Cpd 1411, 1-(1-Phenylethyl)-5-({3-[4-(1,3-thiazol-2-ylcarbonyl)piperazin-1-yl]azetidin-1-yl}carbonyl)-1H-indazole]: the Kd on mutant MGL (setting [5]) was found to be 0.001 µM. Also, the IC50 in assay [1] was 12 nM.
Consider `O=C(c1ccc(-c2cccc(C(F)(F)F)c2)cc1)N1CC(N2CCN(C(=O)c3ccno3)CC2)C1` [Cpd 1118], for which the Kd at mutant MGL (setting [6]) came to 0.053 µM. This compound yielded a half-inhibitory concentration (IC50) in assay [1] of 16 nM.
For the compound `O=C(c1ccc2[nH]c(C3CCCCC3)nc2c1)N1CC(N2CCN(C(=O)c3cscn3)CC2)C1` [Cpd 800], the Kd on mutant MGL (setting [2]) was 1.1 µM. This compound displayed a half-inhibitory concentration (IC50) in assay [1] of 1700 nM.
Regarding `O=C(c1cnc2c(ccn2Cc2ccc(F)cc2)c1)N1CC(N2CCN(C(=O)c3nccs3)CC2)C1` [Cpd 1043, 1-(4-Fluorobenzyl)-5-({3-[4-(1,3-thiazol-2-ylcarbonyl)piperazin-1-yl]azetidin-1-yl}carbonyl)-1H-pyrrolo[2,3-b]pyridine], the Kd at mutant MGL (setting [5]) came out at 0.055 µM. The compound also registered an IC50 in assay [1] of 16 nM.
Regarding `Cc1nc(-c2ccccc2F)sc1C(=O)N1CC(N2CCN(C(=O)c3cscn3)CC2)C1` [Cpd 1287], on mutant MGL (setting [2]), the Kd turned out to be 0.495 µM. The compound further gave a half-inhibitory concentration (IC50) in assay [1] of 2450 nM.
For `O=C(c1ccc(Oc2ccccn2)c(Cl)c1)N1CC(N2CCN(C(=O)c3nccs3)CC2)C1` [Cpd 752], on mutant MGL (setting [2]), the Kd came to 0.095 µM. Besides, in assay [1], the IC50 is 421 nM.
For the compound `N#Cc1ccc(Cn2ncc3cc(C(=O)N4CC(N5CCN(C(=O)c6nccs6)CC5)C4)ccc32)cc1` [Cpd 1045, 4-{[5-({3-[4-(1,3-Thiazol-2-ylcarbonyl)piperazin-1-yl]azetidin-1-yl]carbonyl)-1H-indazol-1-yl}methyl}benzonitrile], the Kd on mutant MGL (setting [5]) stood at 0.19 µM. In addition, in assay [1], half-maximal inhibition (IC50) required 21 nM.
Take `O=C(c1cscn1)N1CCN(C2CN(C(=O)c3cc4ccc(C(F)(F)F)nc4o3)C2)CC1` [Cpd 808]: on mutant MGL (setting [2]), the Kd was found to be 62.5 µM. In assay [1], this compound had an IC50 of 2080 nM.
Turning to `O=C(c1nc2cc(-c3ccc(F)cc3)ccc2[nH]1)N1CC(N2CCN(C(=O)c3nccs3)CC2)C1` [Cpd 1294, 5-(4-Fluorophenyl)-2-({3-[4-(1,3-thiazol-2-ylcarbon-yl)piperazin-1-yl]azetidin-1-yl}carbonyl)-1H-benzimidazole], the Kd at mutant MGL (setting [6]) was determined as 4.41 µM. The same compound came in with a half-inhibitory concentration (IC50) in assay [1] of 3230 nM.
`O=C(c1ccc(N2CCS(=O)(=O)CC2)cc1)N1CC(N2CCN(C(=O)c3nccs3)CC2)C1` [Cpd 843]: the Kd on mutant MGL (setting [2]) came to 2.13 µM. This compound also registered an IC50 in assay [1] of 5530 nM.
Take `O=C(c1ccc2[nH]ncc2c1)N1CC(N2CCN(C(=O)c3nccs3)CC2)C1` [Cpd 820, 5-({3-[4-(1,3-Thiazol-2-ylcarbonyl)piperazin-1-yl]azetidin-1-yl}carbonyl)-1H-indazole]: at mutant MGL (setting [6]), the Kd turned out to be 0.996 µM. In assay [1], this compound returned an IC50 of 2810 nM.
For `O=C(c1ccc(OCc2cncc(Cl)c2)cc1)N1CC(N2CCN(C(=O)C(F)(F)F)CC2)C1` [Cpd 979], on mutant MGL (setting [5]), the Kd was determined as 1.14 µM. Further, the concentration for half-maximal inhibition (IC50) in assay [1] worked out at 648 nM.
Take `O=C(c1ccc2[nH]c(C3CCCCC3)nc2c1)N1CCN(C2CN(C(=O)c3cscn3)C2)CC1` [Cpd 853]: the Kd on mutant MGL (setting [2]) stood at 1 µM. Moreover, the 50% inhibitory concentration (IC50) in assay [1] was found to be 8340 nM.
As to `O=C(c1ccccc1)N1CCN(C2CN(C(=O)c3cccc4[nH]c(-c5cccc(F)c5)nc34)C2)CC1` [Cpd 609], the Kd on mutant MGL (setting [3]) came to 1 µM. In addition, in assay [1], the IC50 came out at 4330 nM.
The corresponding values for `O=C(c1ccccc1)N1CCN(C2CN(C(=O)c3cccc4[nH]c(-c5ccccc5)nc34)C2)CC1` [Cpd 601] are 0.527 µM and 1550 nM.
For `O=C(c1ccc2c(c1)[nH]c(=O)n2C1CCC(F)(F)CC1)N1CC(N2CCN(C(=O)c3nccs3)CC2)C1` [Cpd 932], on mutant MGL (setting [2]), the Kd stood at 0.008 µM. It took 104 nM to reach half-maximal inhibition in assay [1] (IC50).
The like results for `Cn1cc(-c2cccc(C(F)(F)F)c2)c2ccc(C(=O)N3CC(N4CCN(C(=O)c5ccccc5)CC4)C3)cc21` [Cpd 593] were, in that order, 0.01 µM and 311 nM.
For `O=C(c1ccc(OCc2cccc(Cl)c2)cc1)N1CC(N2CCN(C(=O)c3nccs3)CC2)C1` [Cpd 957], at mutant MGL (setting [3]), the Kd turned out to be 0.008 µM. The half-inhibitory concentration (IC50) in assay [1] was below 5 nM.

In general, IC50 refers to the midpoint of a concentration-inhibition curve. Low values mean greater potency in that assay, high ones weaker potency in that assay.

(Values after patent US8362000B2, “Azetidinyl diamides as monoacylglycerol lipase inhibitors” (Janssen Pharmaceutica NV, priority 2009, dated 2013).)
